Assay results from ChEMBL document CHEMBL1140018, “Synthesis and structure-activity relationship of imidazo(1,2-a)thieno(3,2-e)pyrazines as IKK-beta inhibitors” (Bioorg Med Chem Lett, 2007).

Assays:
[1] = molecular target: T1, Inhibitor of nuclear factor kappa-B kinase subunit alpha (Homo sapiens, UniProt O15111)
T1 sequence (O15111 whole entry): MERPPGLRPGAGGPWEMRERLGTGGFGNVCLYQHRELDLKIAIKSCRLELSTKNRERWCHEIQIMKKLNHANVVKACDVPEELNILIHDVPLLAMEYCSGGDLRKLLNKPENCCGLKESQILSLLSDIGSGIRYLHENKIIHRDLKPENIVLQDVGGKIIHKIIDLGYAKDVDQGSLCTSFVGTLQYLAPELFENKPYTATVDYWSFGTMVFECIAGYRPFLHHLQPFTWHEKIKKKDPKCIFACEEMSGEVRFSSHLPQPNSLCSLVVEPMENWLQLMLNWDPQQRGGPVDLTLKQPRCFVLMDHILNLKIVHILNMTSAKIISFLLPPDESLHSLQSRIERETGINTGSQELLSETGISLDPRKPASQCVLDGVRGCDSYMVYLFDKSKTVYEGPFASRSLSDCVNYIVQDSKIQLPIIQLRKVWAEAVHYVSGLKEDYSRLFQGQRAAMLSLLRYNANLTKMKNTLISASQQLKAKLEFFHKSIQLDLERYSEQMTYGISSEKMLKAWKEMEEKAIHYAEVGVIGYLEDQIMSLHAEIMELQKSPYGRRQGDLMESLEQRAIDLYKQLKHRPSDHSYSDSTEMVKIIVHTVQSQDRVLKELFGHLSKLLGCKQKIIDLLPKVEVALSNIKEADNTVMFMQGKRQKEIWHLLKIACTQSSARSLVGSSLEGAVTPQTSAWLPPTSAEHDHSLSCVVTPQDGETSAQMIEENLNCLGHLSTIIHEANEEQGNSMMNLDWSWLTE

[2] = molecular target: T2, Inhibitor of nuclear factor kappa-B kinase subunit beta (Homo sapiens, UniProt O14920)
T2 sequence (O14920 whole entry): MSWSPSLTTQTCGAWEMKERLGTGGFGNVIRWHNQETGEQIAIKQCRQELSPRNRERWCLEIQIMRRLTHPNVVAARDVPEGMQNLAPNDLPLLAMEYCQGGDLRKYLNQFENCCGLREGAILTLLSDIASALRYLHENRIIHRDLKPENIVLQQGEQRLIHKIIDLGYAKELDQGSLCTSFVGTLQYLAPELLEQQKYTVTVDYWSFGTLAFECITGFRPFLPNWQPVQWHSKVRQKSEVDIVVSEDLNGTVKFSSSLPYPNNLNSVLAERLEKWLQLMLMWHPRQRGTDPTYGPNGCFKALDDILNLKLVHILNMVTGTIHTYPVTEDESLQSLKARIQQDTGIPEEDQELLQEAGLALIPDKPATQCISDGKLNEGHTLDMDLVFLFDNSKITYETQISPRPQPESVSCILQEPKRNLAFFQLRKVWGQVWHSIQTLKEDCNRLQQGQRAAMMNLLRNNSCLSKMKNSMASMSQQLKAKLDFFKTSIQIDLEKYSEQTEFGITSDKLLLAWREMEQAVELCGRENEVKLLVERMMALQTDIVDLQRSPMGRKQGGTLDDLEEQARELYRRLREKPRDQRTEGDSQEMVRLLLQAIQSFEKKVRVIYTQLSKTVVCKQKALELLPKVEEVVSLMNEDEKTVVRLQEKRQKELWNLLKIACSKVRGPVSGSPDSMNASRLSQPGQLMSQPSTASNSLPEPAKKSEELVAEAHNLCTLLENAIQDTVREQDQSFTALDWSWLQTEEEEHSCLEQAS

[3] = Cytotoxicity against Jurkat cells by Alamar blue assay; conditions: human
Jurkat = test: Inhibition of TNF-alpha-induced response in Jurkat cells; conditions: Homo sapiens
Liver microsomes = test: Metabolic stability in human liver microsomes; format: ADME, Microsome
Liver = test: Metabolic stability in mouse liver microsomes; format: ADME, Microsome
PBMC = test: Inhibition of LPS-induced TNFalpha production in PBMC; format: functional, cell-based; conditions: Homo sapiens
[4] = Tmax in mouse at 10 mg/kg, po; format: ADME, organism-based; design: dose 10 mg/kg, route oral; conditions: in vivo

Row | SMILES | IC50 [1] | IC50 [2] | EC50 (Jurkat) | Stability (Liver microsomes) | Stability (Liver) | Tmax [4] | CC50 ([3]; Jurkat cells) | CC50 ([3]; jurkat) | EC50 (PBMC)
1 | Cc1cnc2c(NCCN)nc3cc(-c4ccccc4CO)sc3n12 | 4.4 µM | 0.13 µM | 15.6 µM |  |  |  | > 100 µM |  | 
2 | Cc1cnc2c(N)nc3cc(-c4ccccc4)sc3n12 | 6.5 µM | 0.37 µM | 17 µM |  |  |  | > 100 µM |  | 
3 | Cc1cnc2c(NCCN)nc3cc(-c4cccnc4)sc3n12 | 2.57 µM | 0.14 µM | 29.5 µM |  |  |  | 49 µM |  | 
4 | Cc1cnc2c(NCC(N)=O)nc3cc(-c4ccccc4)sc3n12 | > 25 µM | 0.36 µM | > 100 µM |  |  |  | > 100 µM |  | 
5 | Cc1cnc2c(NCCN)nc3ccsc3n12 | 12.1 µM | 0.17 µM | > 100 µM |  |  |  | > 100 µM |  | 
6 | COc1ccccc1-c1cc2nc(NCCN)c3ncc(C)n3c2s1 | 13 µM | 0.28 µM | > 100 µM |  |  |  | 3.5 µM |  | 
7 | Cc1cnc2c(NCCN)nc3cc(C4=NCN=C4)sc3n12 | 3.86 µM | 0.45 µM | > 100 µM |  |  |  | 38 µM |  | 
8 | COc1nc2cc(-c3ccccc3)sc2n2c(C)cnc12 | > 100 µM | > 1 µM | > 100 µM |  |  |  | > 100 µM |  | 
9 | Cc1cnc2c(NCCN)nc3cc(-c4ccncc4)sc3n12 | 2.93 µM | 0.27 µM | 59.6 µM |  |  |  | > 100 µM |  | 
10 | COc1ccc(-c2cc3nc(NCCN)c4ncc(C)n4c3s2)cc1 | 2.8 µM | 0.095 µM | > 30 µM |  |  |  | > 100 µM |  | 
11 | Cc1cnc2c(NCCNC=O)nc3cc(-c4ccccc4)sc3n12 | 7.99 µM | 0.23 µM | 3.16 µM |  |  |  | > 100 µM |  | 
12 | CNc1nc2cc(-c3cccc(C(N)=O)c3)sc2n2c(C)cnc12 | > 30 µM | 0.29 µM | 35.6 µM |  |  |  | > 100 µM |  | 
13 | CNc1nc2ccsc2n2c(C)cnc12 | 4.12 µM | 0.52 µM | > 3 µM |  |  |  | > 100 µM |  | 
14 | CC(=O)NCCNc1nc2cc(-c3ccccc3)sc2n2c(C)cnc12 | 7.03 µM | 0.29 µM | 10.2 µM |  |  |  | > 100 µM |  | 
15 | CNc1nc2cc(C)sc2n2c(C)cnc12 | 7.83 µM | 0.49 µM | > 30 µM |  |  |  | > 100 µM |  | 
16 | Cc1cnc2c(NCCO)nc3cc(-c4ccccc4)sc3n12 | 3.48 µM | 0.085 µM | 7.17 µM |  |  |  | > 100 µM |  | 
17 | CNc1nc2cc(-c3cccc(C(=O)O)c3)sc2n2c(C)cnc12 | 14.4 µM | 0.19 µM | 65.7 µM |  |  |  | > 100 µM |  | 

The next compounds have a lower IC50 [1] than those just listed; values first:

Row | IC50 [1] | IC50 [2] | EC50 (Jurkat) | Stability (Liver microsomes) | Stability (Liver) | Tmax [4] | SMILES | CC50 ([3]; Jurkat cells) | CC50 ([3]; jurkat) | EC50 (PBMC)
18 | 1.26 µM | 0.013 µM | > 100 µM |  |  |  | CNc1nc2cc(-c3cccc(CC(N)C(=O)O)c3)sc2n2c(C)cnc12 (stereo unspecified) | > 100 µM |  | 
19 | 0.42 µM |  | 0.85 µM |  |  |  | CNCCNc1nc2cc3ccccc3cc2n2c(C)cnc12 |  |  | 
20 | 0.69 µM | 0.044 µM | 29.2 µM |  |  |  | COc1cccc(-c2cc3nc(NCCN)c4ncc(C)n4c3s2)c1 | 3.5 µM |  | 
21 | 0.65 µM | 0.045 µM | 6.73 µM |  |  |  | CNc1nc2cc(-c3cccc(CCN)c3)sc2n2c(C)cnc12 | 21 µM |  | 
22 | 1.11 µM | 0.23 µM | 18.6 µM |  |  |  | Cc1cnc2c(NCCN)nc3cc(-c4nccs4)sc3n12 | 5.9 µM |  | 
23 | 0.77 µM | 0.038 µM | 2.33 µM |  |  |  | CNc1nc2cc(-c3cccc(CNC(C)=O)c3)sc2n2c(C)cnc12 | > 100 µM |  | 
24 | 1.08 µM | 0.051 µM | 1.9 µM |  |  |  | CNC(=O)CNCCc1cccc(-c2cc3nc(NC)c4ncc(C)n4c3s2)c1 | 50 µM |  | 
25 | 0.45 µM | 0.008 µM | 2.4 µM |  |  |  | Cc1cnc2c(NCCN)nc3cc(-c4cccc(CO)c4)sc3n12 |  | 7 µM | 
26 | 0.44 µM | 0.007 µM | 0.92 µM |  |  |  | CNc1nc2cc(-c3cccc(CCNS(N)(=O)=O)c3)sc2n2c(C)cnc12 | > 100 µM |  | 
27 | 0.91 µM | 0.021 µM | 0.95 µM |  |  |  | Cc1cnc2c(NCCN)nc3cc(-c4cccc(CCO)c4)sc3n12 | 13 µM |  | 
28 | 0.17 µM | 0.003 µM | 0.27 µM | 0.035 nmol/mg/min | 0.231 nmol/mg/min | 1 h | CNc1nc2cc(-c3cccc(CNS(N)(=O)=O)c3)sc2n2c(C)cnc12 | > 100 µM |  | 0.095 µM
29 | 2.33 µM | 0.023 µM | 40.9 µM |  |  |  | Cc1cnc2c(NCCN)nc3cc(-c4ccc(CO)cc4)sc3n12 | 14 µM |  | 
30 | 1.21 µM | 0.019 µM | 0.81 µM |  |  |  | CNc1nc2cc(-c3cccc(CCC(N)=O)c3)sc2n2c(C)cnc12 | > 100 µM |  | 
31 | 1.24 µM | 0.19 µM | > 100 µM |  |  |  | Cc1cnc2c(NCCN)nc3cc(-c4ccccn4)sc3n12 | 13 µM |  | 
32 | 1.34 µM | < 0.009 µM | 4.96 µM |  |  |  | CNc1nc2cc(-c3cccc(CCC(=O)O)c3)sc2n2c(C)cnc12 | > 100 µM |  | 
33 | 1.45 µM | 0.01 µM | 8.02 µM |  |  |  | Cc1cnc2c(NCCN)nc3cc(-c4cn[nH]c4)sc3n12 | 46 µM |  | 
34 | 0.51 µM | 0.023 µM | 2.61 µM |  |  |  | CNc1nc2cc(-c3cccc(CNCC(N)=O)c3)sc2n2c(C)cnc12 | > 100 µM |  | 
35 | 0.82 µM | 0.021 µM | 1.97 µM |  |  |  | CNc1nc2cc(-c3cccc(CCNC(C)=O)c3)sc2n2c(C)cnc12 | > 100 µM |  | 
36 | 1.99 µM | 0.26 µM | 5.73 µM |  |  |  | CCNc1nc2cc(-c3ccccc3)sc2n2c(C)cnc12 | > 100 µM |  | 
37 | 1.17 µM | 0.095 µM | > 30 µM |  |  |  | Cc1cnc2c(NCCN(C)C)nc3cc(-c4ccccc4)sc3n12 | > 100 µM |  | 
38 | 1.26 µM | 0.25 µM | 7.96 µM |  |  |  | Cc1cnc2c(NCCN)nc3cc(-c4ccc[nH]4)sc3n12 | 7.9 µM |  | 
39 | 0.94 µM | 0.029 µM | 4.53 µM |  |  |  | Cc1cnc2c(NCCN)nc3cc(-c4ccoc4)sc3n12 | > 100 µM |  | 
40 | 0.26 µM | 0.014 µM | 0.45 µM |  |  |  | CNc1nc2cc(-c3cccc(C[C@H](N)C(N)=O)c3)sc2n2c(C)cnc12 | > 100 µM |  | 
41 | 0.19 µM | 0.027 µM | 0.69 µM |  |  |  | CNc1nc2cc(-c3cccc(C[C@@H](N)C(N)=O)c3)sc2n2c(C)cnc12 | 90 µM |  | 
